# Experimental data: patent publication US20260098008A1, “COVALENT, CHEMOGENETIC ACTIVATORS FOR K2P POTASSIUM CHANNELS AND USES THEREOF” (THE REGENTS OF THE UNIVERSITY OF CALIFORNIA, priority 2022, published 2026)
# Changes are numbered by the printed parent chain. “And” between values parts separate entries of the source, which are not always exact repeats. Equal entries are not always repeated.
# Legend:
# K2P2.1 (TREK-1) S131A = target: T1, K2P2.1 (TREK-1) S131A (Mus musculus, UniProt P97438, S146A); assay: TEVC in Xenopus oocytes; assay type: cell-based; details: 20 μM, 0 mV
# T1 construct: expressed in transfected cells; host or cells: Xenopus laevis oocytes injected with mRNA
# T1 sequence (P97438 1-411 isoform P97438-2 S131A): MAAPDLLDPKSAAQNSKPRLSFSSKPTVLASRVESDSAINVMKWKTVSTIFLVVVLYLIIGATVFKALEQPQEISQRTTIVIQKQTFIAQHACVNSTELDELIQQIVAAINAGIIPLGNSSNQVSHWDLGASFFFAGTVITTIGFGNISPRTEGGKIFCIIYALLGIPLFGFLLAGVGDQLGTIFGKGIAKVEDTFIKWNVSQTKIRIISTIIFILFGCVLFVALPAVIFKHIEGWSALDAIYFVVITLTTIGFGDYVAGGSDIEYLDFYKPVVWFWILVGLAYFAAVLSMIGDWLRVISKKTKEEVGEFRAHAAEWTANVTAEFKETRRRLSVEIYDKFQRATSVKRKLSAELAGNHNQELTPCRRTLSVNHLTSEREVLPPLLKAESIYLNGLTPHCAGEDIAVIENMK
# Description: (§1) Mouse K2P2.1 (TREK-1) (Genbank accession number: NP_034737.2), mouse K2P10.1 (TREK-2) (NM_001316665.1), mouse K2P4.1 (TRAAK) (NM_008431.3), human K2P4.1 (TRAAK) (NM_033310.2) and mouse K2P18.1(TRESK) (NM_207261.3) were used for this study. Point mutations were introduced by site-directed mutagenesis using custom primers and confirmed by sequencing before use. For studies using Xenopus oocytes, K2P channels were subcloned into a previously reported pGEMHE/pMO vector (46). For expression in HEK293 cells, mouse K2P2.1 (TREK-1) and mutants were expressed from a previously described pIRES2-EGFP vector in HEK293 cells (46,47). K2P2.1 (TREK-1) tandems were constructed by connecting the open reading frames for the individual subunits with a linker encoding the […] (SEQ ID NO: 19) sequence. Tandems used for HEK293 cells included an N-terminal HA tag ([…] (SEQ ID NO: 20)) on the first subunit.
# (§2) Xenopus laevis oocytes were harvested according to UCSF IACUC Protocol AN129690 and digested using collagenase (Worthington Biochemical Corporation, #LS004183, 0.8-1.0 mg/mL) in Ca^21-free ND96 (96 mM NaCl, 2 mM KCl, 3.8 mM MgCl2, 5 mM HEPES pH 7.4) immediately post-harvest, as previously reported (31,33). Oocytes were maintained at 18° C. in ND96 (96 mM NaCl, 2 mM KCl, 1.8 mM CaCl2, 2 mM MgCl2, 5 mM HEPES pH 7.4) supplemented with antibiotics (100 units mL^−1 penicillin, 100 μg mL^−1 streptomycin, 50 μg mL^−1 gentimycin) and used for experiments within one week of harvest.
# (§3) Defolliculated stage V-VI oocytes were microinjected with 0.5-36 ng mRNA and currents were recorded within 16-48 h hours of injection.
# (§4) For recordings, oocytes were impaled with borosilicate recording microelectrodes (0.4-2.0 MΩ resistance) backfilled with 3 M KCl and were subjected to constant perfusion of ND96 at a rate of 3 ml min^−1. Recording solutions containing K2P activators were prepared immediately prior to use from DMSO stocks (20-100 mM), with final DMSO concentrations of 0.1%. Currents were evoked from a −80 mV holding potential followed by a 300 ms ramp from −150 mV to +50 mV. Data were recorded using a GeneClamp 500B amplifier (MDS Analytical Technologies) controlled by pCLAMP8 software (Molecular Devices), and digitized at 1 kHz using Digidata 1332 Å digitizer (MDS Analytical Technologies). For each recording, control solution (ND96) was perfused over a single oocyte until current was stable before switching to solutions containing the test compounds at various concentrations. Representative traces and dose response plots were generated in GraphPad Prism 9.
# K2P2.1 (TREK-1) = target: T2, K2P2.1 (TREK-1) (Mus musculus, UniProt P97438); assay: Two-electrode voltage clamp (TEVC) in Xenopus oocytes; assay type: cell-based; details: for TREK-1 activity class: Fold-activation at 20 uM in oocytes
# T2 construct: expressed in transfected cells; host or cells: Xenopus laevis oocytes injected with mRNA (pGEMHE/pMO vector)
# T2 sequence (P97438 1-411 isoform P97438-2): T1 sequence (P97438 1-411 isoform P97438-2 S131A) with A131S
# Description: as §1, §2, §3, §4
# K2P10.1 (TREK-2)^CG* = target: T3, K2P10.1 (TREK-2)^CG* (Mus musculus, UniProt Q8BUW1, S153C); assay: TEVC in Xenopus oocytes; assay type: cell-based; details: Fold-activation at 20 uM in oocytes
# T3 construct: Modified TREK-2 from Mus musculus; expressed in transfected cells; host or cells: Xenopus laevis oocytes injected with mRNA
# T3 sequence (Q8BUW1 with tags, fused parts or gaps S153C): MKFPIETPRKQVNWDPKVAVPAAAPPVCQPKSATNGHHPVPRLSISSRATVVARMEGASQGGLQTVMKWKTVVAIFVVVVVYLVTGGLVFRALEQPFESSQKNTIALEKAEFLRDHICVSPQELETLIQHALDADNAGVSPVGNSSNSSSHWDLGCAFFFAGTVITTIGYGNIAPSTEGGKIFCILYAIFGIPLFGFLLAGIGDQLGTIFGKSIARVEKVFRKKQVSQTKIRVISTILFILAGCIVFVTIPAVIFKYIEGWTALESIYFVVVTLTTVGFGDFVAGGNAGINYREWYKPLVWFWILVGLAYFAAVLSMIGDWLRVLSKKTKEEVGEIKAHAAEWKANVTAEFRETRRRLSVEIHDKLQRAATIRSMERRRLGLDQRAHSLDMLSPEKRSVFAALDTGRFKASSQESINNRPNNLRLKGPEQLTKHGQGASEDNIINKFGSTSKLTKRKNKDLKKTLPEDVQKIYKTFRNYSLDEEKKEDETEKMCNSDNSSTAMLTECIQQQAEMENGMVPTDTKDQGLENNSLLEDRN
# Description: as §1, §2, §3, §4
# [1] = target: T4, TREK-1^CG* (K2P2.1 (TREK-1) S131C) (Mus musculus, UniProt P97438, S146C); assay: TEVC in Xenopus oocytes; assay type: cell-based; details: Fold-activation at 20 uM in oocytes
# T4 construct: expressed in transfected cells; host or cells: Xenopus laevis oocytes injected with mRNA
# T4 sequence (P97438 1-411 isoform P97438-2 S131C): T1 sequence (P97438 1-411 isoform P97438-2 S131A) with A131C
# Description: as §1, §2, §3, §4
# TREK-2 = target: T5, TREK-2 (Mus musculus, UniProt Q8BUW1); assay: TEVC in Xenopus oocytes; assay type: cell-based; details: Fold-activation at 20 uM in oocytes
# T5 construct: expressed in transfected cells; host or cells: Xenopus laevis oocytes injected with mRNA
# T5 sequence (Q8BUW1 with tags, fused parts or gaps): T3 sequence (Q8BUW1 with tags, fused parts or gaps S153C) with C156S
# Description: as §1, §2, §3, §4
# K2P4.1 (TRAAK) = target: T6, K2P4.1 (TRAAK) (Homo sapiens, UniProt Q9NYG8); details: previous studies; cited from earlier work
# T6 sequence (Q9NYG8 1-393): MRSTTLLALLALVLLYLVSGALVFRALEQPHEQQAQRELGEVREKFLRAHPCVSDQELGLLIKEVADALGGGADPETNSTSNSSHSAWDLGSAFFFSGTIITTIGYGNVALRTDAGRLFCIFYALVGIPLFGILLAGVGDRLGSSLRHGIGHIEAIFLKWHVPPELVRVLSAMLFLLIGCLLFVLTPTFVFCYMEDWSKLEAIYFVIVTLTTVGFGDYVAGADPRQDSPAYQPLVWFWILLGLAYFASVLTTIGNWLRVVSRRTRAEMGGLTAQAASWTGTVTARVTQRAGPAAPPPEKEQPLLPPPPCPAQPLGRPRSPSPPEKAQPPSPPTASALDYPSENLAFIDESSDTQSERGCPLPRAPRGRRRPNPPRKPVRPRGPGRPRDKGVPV
# [2] = Solubility in aqueous solutions (crystallization sample preparation); assay type: physicochemical
# Description: K2P2.1cryst ML335 and ML402 complex crystals grew in the same conditions as K2P2.1cyst, but the protein was incubated for at least 1 h with 2.5 mM of activator before setting the crystal plates. […] Then each compound was diluted 1:100 in SEC buffer to 5 mM concentration, giving a milky solution. This solution was mixed 1:1 to K2P2.1cryst previously concentrated to 12 mg ml^−1. […] The samples were briefly centrifuged in a table-top centrifuge (10,000 g) to remove any insoluble material before setting the crystal plates.
Compound,TREK-2 GC activity class (K2P10.1 (TREK-2)^CG*),TREK-1 GC activity class [1],TREK-2 activity class (TREK-2),TREK-1 activity class (K2P2.1 (TREK-1)),further results
C=CC(=O)Nc1ccc(C(=O)NCc2ccc(Cl)cc2Cl)cc1 [ML336],–,–,–,–,"Fold-activation (I activator/I control) (K2P2.1 (TREK-1) S131A): 16.1 (FIG. 1) fold; Reversibility of activation on washout (K2P2.1 (TREK-1); 20 μM, Xenopus oocytes): sustained following washout; Fold-activation (I activator/I control) (K2P2.1 (TREK-1); 20 μM, currents at 0 mV, Xenopus oocytes): 10+1.0 fold and 10.0 (FIG. 1) fold"
CC1=CC(=O)N(c2ccc(C(=O)NCc3ccc(Cl)cc3Cl)cc2)C1=O [Entry 15],+++ (>5 fold),+++ (>5 fold),+ (1.5-2.5 fold),+ (1.5-2.5 fold),–
Cc1cc(Cl)ccc1OCCNC(=O)c1cccs1 [ML402],–,–,–,–,Sensitivity of channel to activator (K2P4.1 (TRAAK)): insensitive; Solubility in aqueous solutions [2]: insoluble in aqueous solutions
CC1=C(C)C(=O)N(c2ccc(C(=O)NCc3ccc(Cl)cc3Cl)cc2)C1=O [Entry 20],+ (1.5-2.5 fold),++ (2.5-5 fold),–,–,–
O=C(NCc1ccc(Cl)cc1Cl)c1ccc(N2C(=O)C=CC2=O)cc1 [Entry 16],+++ (>5 fold),+++ (>5 fold),+ (1.5-2.5 fold),+ (1.5-2.5 fold),–
